Data on ten molecules can be found in ChEMBL document CHEMBL1201862, “PubChem BioAssay data set” (2004).

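Test compounds were applied to cells in 96-well plates for 48 hours at 5 doses. GI50 is the concentration that inhibits growth by half.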 The source made the active and inactive calls. Rule as the data show it: active = GI50 up to about 1.1 µM and inactive = higher. Bounds are passed on as bounds.

Test systems include EKVX; HCC 2998; HCT-116; HT-29; M14; MDA-MB-231; MDA-N; Malme-3M; NCI-H522; OVCAR-3; OVCAR-4; SF-295; SF-539; SK-MEL-5; SR; T47D; U-251; UACC-257; UACC-62; UO-31.
What all share (experiment): NCI anticancer screen, dose series, 48 h

As to `Oc1ccccc1/C=N/Nc1nc(N/N=C/c2ccccc2O)nc(N/N=C/c2ccccc2O)n1`, the GI50 was > 100 µM (inactive) in the assay on EKVX; > 100 µM (inactive) in the assay with HCC 2998; 42.2 µM (inactive) in the assay on HCT-116; 69.7 µM (inactive) in the assay on HT-29; > 100 µM (inactive) in the assay with M14; > 100 µM (inactive) in the assay with MDA-MB-231. In addition, the GI50 with MDA-N is > 100 µM (inactive); in the assay with Malme-3M it was > 100 µM (inactive); in the assay on NCI-H522, 31.6 µM (inactive); in the assay on OVCAR-3, 29.2 µM (inactive); in the assay on OVCAR-4 it was > 100 µM (inactive); in the assay with SF-295, 86.1 µM (inactive). For the same molecule, the GI50 in the assay with SF-539 was > 100 µM (inactive); in the assay on SK-MEL-5, > 100 µM (inactive); in the assay with SR it was > 100 µM (inactive); in the assay with T47D, 47.9 µM (inactive); with U-251 it was 47.1 µM (inactive); with UACC-257, > 100 µM (inactive). The GI50 was 51.1 µM (inactive) in the assay with UACC-62 and > 100 µM (inactive) with UO-31.
For `c1ccc2cc(CNCCCCNCCCNCc3ccc4ccccc4c3)ccc2c1`, the GI50 in the assay with EKVX was 1.57 µM (inactive); in the assay on HCC 2998, 0.48 µM (active); in the assay on HCT-116, 0.3 µM (active); in the assay on HT-29 it was 0.229 µM (active); with M14, 1.33 µM (inactive); with MDA-MB-231 it was 1.82 µM (inactive). Besides, the GI50 in the assay with MDA-N is 0.993 µM (active); in the assay with Malme-3M, 1.71 µM (inactive); in the assay on NCI-H522, 1.14 µM (inactive); in the assay with OVCAR-3 it was 1.6 µM (inactive); with OVCAR-4, 1.6 µM (inactive); in the assay on SF-295 it was 1.5 µM (inactive). In addition, the GI50 was 1.69 µM (inactive) in the assay on SF-539; 2.4 µM (inactive) in the assay with SK-MEL-5; 0.351 µM (active) in the assay with SR; 2.77 µM (inactive) in the assay with T47D; 0.564 µM (active) in the assay on U-251; 1.88 µM (inactive) in the assay with UACC-257. In addition, the GI50 in the assay with UACC-62 was 1.75 µM (inactive); in the assay with UO-31, 1.42 µM (inactive).
For `C1=CC2C=CC(C=C1)P2c1ccccc1` (stereo not given), the GI50 in the assay with EKVX was > 100 µM (inactive); with HCC 2998, 0.0175 µM (active); with HCT-116, > 100 µM (inactive); in the assay with HT-29 it was > 100 µM (inactive); in the assay on M14, > 100 µM (inactive); in the assay on MDA-MB-231 it was > 100 µM (inactive). Besides, the GI50 with MDA-N, in the assay on Malme-3M, in the assay with NCI-H522, in the assay on OVCAR-3, with OVCAR-4 and in the assay on SF-295 was > 100 µM (inactive) throughout. In addition, the GI50 with SF-539, in the assay on SK-MEL-5, in the assay with SR, in the assay with T47D, in the assay with U-251 and in the assay with UACC-257 was > 100 µM (inactive) each time. The GI50 in the assay with UACC-62 and in the assay on UO-31 was > 100 µM (inactive) throughout.
Consider `O=C1C(N2CCOCC2)=C(Cl)C(=O)c2ncccc21`, for which the GI50 is > 10 µM (inactive) with EKVX; > 6 µM (inactive) in the assay on HCC 2998; 1.71 µM (inactive) with HCT-116; > 7.89 µM (inactive) with HT-29; 2.37 µM (inactive) in the assay with M14; 2.49 µM (inactive) in the assay with MDA-MB-231. In addition, the GI50 is 1.97 µM (inactive) in the assay with MDA-N; 1.89 µM (inactive) in the assay with Malme-3M; 1.45 µM (inactive) in the assay on NCI-H522; 1.81 µM (inactive) in the assay on OVCAR-3; 1.56 µM (inactive) in the assay on OVCAR-4; > 10 µM (inactive) in the assay on SF-295. For the same molecule, the GI50 with SF-539 was 4.89 µM (inactive); in the assay with SK-MEL-5, 1.82 µM (inactive); with SR it was 0.778 µM (active); in the assay on T47D, 1.99 µM (inactive); in the assay on U-251, 5.71 µM (inactive); with UACC-257, 1.73 µM (inactive). In addition, the results for the GI50 in the assay on UACC-62 and in the assay on UO-31 were 2.33 µM (inactive) and 4.23 µM (inactive), respectively.
Turning to `O=c1c2ccccc2n2c(S)nnc2n1-c1ccccc1`, the GI50 in the assay with EKVX, in the assay on HCC 2998, with HCT-116, with HT-29, with M14 and in the assay with MDA-MB-231 was > 100 µM (inactive) throughout. The GI50 in the assay on MDA-N, in the assay with Malme-3M, in the assay with NCI-H522, with OVCAR-3, in the assay with OVCAR-4 and with SF-295 was > 100 µM (inactive) throughout. In addition, the GI50 in the assay with SF-539, with SK-MEL-5, with SR, in the assay on T47D, in the assay on U-251 and with UACC-257 was > 100 µM (inactive) each time. Moreover, the GI50 in the assay with UACC-62 and with UO-31 was > 100 µM (inactive) in each case.
In the case of `Cc1ccc(/N=N/c2ccc(O)c(CN(C)C)c2)cc1`, the GI50 with EKVX was 22.6 µM (inactive); with HCC 2998 it was 15.5 µM (inactive); in the assay with HCT-116 it was 22.5 µM (inactive); with HT-29, 17.2 µM (inactive); in the assay with M14, 21.9 µM (inactive); in the assay on MDA-MB-231, 20.6 µM (inactive). Further, the GI50 with MDA-N was 16.2 µM (inactive); with Malme-3M, 16.7 µM (inactive); in the assay with NCI-H522 it was 16.7 µM (inactive); in the assay with OVCAR-3, 15.7 µM (inactive); in the assay with OVCAR-4, 22.6 µM (inactive); in the assay on SF-295, 18.1 µM (inactive). The GI50 in the assay with SF-539 was 17.7 µM (inactive); in the assay on SK-MEL-5, 14.5 µM (inactive); with SR, 24.8 µM (inactive); in the assay with T47D, 13.7 µM (inactive); in the assay with U-251, 32.1 µM (inactive); with UACC-257, 17.8 µM (inactive). The GI50 was 20.3 µM (inactive) in the assay with UACC-62 and 16 µM (inactive) in the assay on UO-31.
Take `CC1=CC(=O)N(n2c(Cc3ccc(Cl)cc3)n[nH]c2=O)C1=O`: the GI50 was 49 µM (inactive) in the assay on EKVX; > 100 µM (inactive) in the assay with HCC 2998; 40.3 µM (inactive) with HCT-116; 19.5 µM (inactive) in the assay with HT-29; 47.9 µM (inactive) in the assay on M14; 46.3 µM (inactive) in the assay on MDA-MB-231. In addition, the GI50 was 44.7 µM (inactive) in the assay with MDA-N; 94.2 µM (inactive) in the assay on Malme-3M; 17.4 µM (inactive) with NCI-H522; 33.6 µM (inactive) with OVCAR-3; 38.6 µM (inactive) in the assay with OVCAR-4; 28.4 µM (inactive) in the assay on SF-295. For the same molecule, the GI50 was 39.1 µM (inactive) in the assay with SF-539; 46 µM (inactive) in the assay on SK-MEL-5; 15.9 µM (inactive) with SR; 35.4 µM (inactive) in the assay on T47D; 27.2 µM (inactive) with U-251; > 100 µM (inactive) with UACC-257. For the same molecule, the GI50 in the assay on UACC-62 was 19.3 µM (inactive); in the assay on UO-31, > 100 µM (inactive).
Regarding `CN(C)CCCn1nc(N)c2nc3cc(Cl)ccc3nc21`, the GI50 in the assay on EKVX was > 66.5 µM (inactive); in the assay with HCC 2998, 35.7 µM (inactive); in the assay with HCT-116 it was 30.3 µM (inactive); in the assay with HT-29, 27.9 µM (inactive); with M14, 20.7 µM (inactive); with MDA-MB-231, 58.3 µM (inactive). Also, the GI50 with MDA-N was 52.7 µM (inactive); with Malme-3M, 41.1 µM (inactive); with NCI-H522, 61.9 µM (inactive); in the assay on OVCAR-3 it was 99.8 µM (inactive); with OVCAR-4, > 100 µM (inactive); with SF-295, > 77.1 µM (inactive). The GI50 with SF-539 is 38.2 µM (inactive); with SK-MEL-5 it was 20 µM (inactive); in the assay with SR it was 32.5 µM (inactive); in the assay with T47D it was 92.3 µM (inactive); in the assay on U-251, 44.8 µM (inactive); in the assay with UACC-257, 24.5 µM (inactive). In addition, the GI50 in the assay with UACC-62 is 20.7 µM (inactive); in the assay on UO-31 it was 28.6 µM (inactive).
With `CCCCCCc1nn2c(-c3ccncc3)nnc2s1`, the GI50 in the assay on EKVX, in the assay with HCC 2998, with HCT-116, in the assay on HT-29, in the assay on M14 and in the assay on MDA-MB-231 was > 10 µM (inactive) each time. The GI50 with MDA-N, in the assay on Malme-3M, with NCI-H522, in the assay with OVCAR-3, in the assay with OVCAR-4 and with SF-295 was > 10 µM (inactive) throughout. In addition, the GI50 in the assay with SF-539, in the assay with SK-MEL-5, with SR, in the assay on T47D, in the assay with U-251 and in the assay with UACC-257 was > 10 µM (inactive) throughout. Moreover, the GI50 with UACC-62 was > 10 µM (inactive); in the assay with UO-31, 1.42 µM (inactive).
In the case of `COc1ccc(C(C)NNC(=O)c2ccncc2)c(OC)c1` (stereo not given), the GI50 with EKVX, in the assay on HCC 2998, in the assay with HCT-116, in the assay with HT-29, with M14 and in the assay with MDA-MB-231 was > 100 µM (inactive) in each case. The GI50 in the assay with MDA-N, in the assay with Malme-3M, in the assay with NCI-H522, in the assay with OVCAR-3, with OVCAR-4 and in the assay on SF-295 was > 100 µM (inactive) throughout. For the same molecule, the GI50 in the assay on SF-539, in the assay with SK-MEL-5, in the assay with SR, in the assay on T47D, with U-251 and with UACC-257 was > 100 µM (inactive) each time. For the same molecule, the GI50 with UACC-62 and in the assay with UO-31 was > 100 µM (inactive) throughout.
